According to patent US9593108B2, “Compounds and methods for antiviral treatment” (PTC Therapeutics, Inc., priority 2009, dated 2017):

Assays:
[1] = system: HCV replicon RNA (GenBank Accession No. AJ242654); test: HCV Replicon Assay (replicon RNA reduction and/or Fluc reporter signal); type: cell-based, Hepatitis C virus; conditions: Hepatitis C virus, 72 h, replicon-containing cells cultured with test compound for up to 3 days
Method in brief: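 Bicistronic replicon-containing cells cultured with compound for up to 3 days, with interferon as positive control. Inhibition quantified by replicon RNA reduction and/or Fluc reporter signal; IC50 values generally derived from replicon RNA reduction.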

Cc1cnc2c(c1)c(C#N)c(-c1ccc(S(=O)(=O)N[C@@H](C)C(F)(F)F)cc1)n2C1CCCC1 [Cpd 263, 4-(3-cyano-1-cyclopentyl-5-methyl-1H-pyrrolo[2,3-b]pyridin-2-yl)-N-[(2S)-1,1,1-trifluoropropan-2-yl]benzenesulfonamide]
IC50 [1]: < 500 nM
melting point: 191 to 196 °C

Cc1cnc2c(c1)c(C#N)c(-c1ccc(NC(C)C)cc1)n2C1CCC1 [Cpd 264, 1-cyclobutyl-5-methyl-2-[4-(propan-2-ylamino)phenyl]-1H-pyrrolo[2,3-b]pyridine-3-carbonitrile]
IC50 [1]: < 500 nM
melting point: 193 to 199 °C

Cc1cnc2c(c1)c(C#N)c(-c1ccc(NC(=O)C(C)C)cc1)n2C1CCC1 [Cpd 265, N-[4-(3-cyano-1-cyclobutyl-5-methyl-1H-pyrrolo[2,3-b]pyridin-2-yl)phenyl]-2-methylpropanamide]
IC50 [1]: 500 to 2000 nM
melting point: 134 to 140 °C

Cc1cnc2c(c1)c(C#N)c(-c1ccc(NC(=O)NC(C)C)cc1)n2C1CCC1 [Cpd 266, 1-[4-(3-cyano-1-cyclobutyl-5-methyl-1H-pyrrolo[2,3-b]pyridin-2-yl)phenyl]-3-propan-2-ylurea]
IC50 [1]: < 500 nM
melting point: 224 to 231 °C

Cc1cnc2c(c1)c(C#N)c(-c1ccc(NS(=O)(=O)C(C)C)cc1)n2C1CCC1 [Cpd 267, N-[4-(3-cyano-1-cyclobutyl-5-methyl-1H-pyrrolo[2,3-b]pyridin-2-yl)phenyl]propane-2-sulfonamide]
IC50 [1]: 500 to 2000 nM
melting point: 155 to 164 °C

COc1cnc2c(c1)c(C#N)c(-c1ccc(S(=O)(=O)N[C@H](C)C(F)(F)F)cn1)n2C1CCCC1 [Cpd 268, 6-(3-cyano-1-cyclopentyl-5-methoxy-1H-pyrrolo[2,3-b]pyridin-2-yl)-N-[(2R)-1,1,1-trifluoropropan-2-yl]pyridine-3-sulfonamide]
IC50 [1]: 500 to 2000 nM
melting point: 181 to 184 °C

C[C@H](NS(=O)(=O)c1ccc(-c2c(C#N)c3cc(Cl)cnc3n2-c2ncccn2)nc1)C(F)(F)F [Cpd 270, 6-[5-chloro-3-cyano-1-(pyrimidin-2-yl)-1H-pyrrolo[2,3-b]pyridin-2-yl]-N-[(2S)-1,1,1-trifluoropropan-2-yl]pyridine-3-sulfonamide]
IC50 [1]: < 500 nM
melting point: 223 to 225 °C

COc1cnc2c(c1)c(C#N)c(-c1ccc(S(=O)(=O)NC(C)(C)C)cn1)n2C1CCC1 [Cpd 271, N-tert-butyl-6-(3-cyano-1-cyclobutyl-5-methoxy-1H-pyrrolo[2,3-b]pyridin-2-yl)pyridine-3-sulfonamide]
IC50 [1]: 500 to 2000 nM
melting point: 174 to 176 °C

CSc1cnc2c(c1)c(C#N)c(-c1ccc(S(=O)(=O)N[C@@H](C)C(F)(F)F)cn1)n2C1CCCC1 [Cpd 272, 6-[3-cyano-1-cyclopentyl-5-(methylsulfanyl)-1H-pyrrolo[2,3-b]pyridin-2-yl]-N-[(2S)-1,1,1-trifluoropropan-2-yl]pyridine-3-sulfonamide]
IC50 [1]: < 500 nM
melting point: 168 to 172 °C

CSc1cnc2c(c1)c(C#N)c(-c1ccc(S(=O)(=O)N[C@H](C)C(F)(F)F)cn1)n2C1CCCC1 [Cpd 273, 6-[3-cyano-1-cyclopentyl-5-(methylsulfanyl)-1H-pyrrolo[2,3-b]pyridin-2-yl]-N-[(2R)-1,1,1-trifluoropropan-2-yl]pyridine-3-sulfonamide]
IC50 [1]: < 500 nM
melting point: 124 to 127 °C

CSc1cnc2c(c1)c(C#N)c(-c1ccc(S(=O)(=O)NC3(C(F)(F)F)CC3)cn1)n2C1CCCC1 [Cpd 274, 6-[3-cyano-1-cyclopentyl-5-(methylsulfanyl)-1H-pyrrolo[2,3-b]pyridin-2-yl]-N-[1-(trifluoromethyl)cyclopropyl]pyridine-3-sulfonamide]
IC50 [1]: < 500 nM
melting point: 200 to 203 °C

C[C@H](NS(=O)(=O)c1ccc(-c2c(C#N)c3cc(O)cnc3n2C2CCC2)nc1)C(F)(F)F [Cpd 275, 6-(3-cyano-1-cyclobutyl-5-hydroxy-1H-pyrrolo[2,3-b]pyridin-2-yl)-N-[(2S)-1,1,1-trifluoropropan-2-yl]pyridine-3-sulfonamide]
IC50 [1]: < 500 nM
melting point: 240 to 242 °C

CC[C@H](NS(=O)(=O)c1ccc(-c2c(C#N)c3cc(Cl)cnc3n2C2CCC2)nc1)C(F)(F)F [Cpd 276, 6-(5-chloro-3-cyano-1-cyclobutyl-1H-pyrrolo[2,3-b]pyridin-2-yl)-N-[(2S)-1,1,1-trifluorobutan-2-yl]pyridine-3-sulfonamide]
IC50 [1]: < 500 nM
melting point: 186 to 191 °C

COc1cnc2c(c1)c(C#N)c(-c1cc(C)c(S(=O)(=O)N[C@@H](C)C(F)(F)F)cn1)n2C1CCC1 [Cpd 277, 6-(3-cyano-1-cyclobutyl-5-methoxy-1H-pyrrolo[2,3-b]pyridin-2-yl)-4-methyl-N-[(2S)-1,1,1-trifluoropropan-2-yl]pyridine-3-sulfonamide]
IC50 [1]: < 500 nM
melting point: 175 to 179 °C

Cc1cc(-c2c(C#N)c3cc(Cl)cnc3n2C2CCCC2)ncc1S(=O)(=O)N[C@@H](C)C(F)(F)F [Cpd 278, 6-(5-chloro-3-cyano-1-cyclopentyl-1H-pyrrolo[2,3-b]pyridin-2-yl)-4-methyl-N-[(2S)-1,1,1-trifluoropropan-2-yl]pyridine-3-sulfonamide]
IC50 [1]: < 500 nM
melting point: 190 to 195 °C

CC[C@H](NS(=O)(=O)c1ccc(-c2c(C#N)c3cc(C)cnc3n2C2CCC2)nc1)C(F)(F)F [Cpd 279, 6-(3-cyano-1-cyclobutyl-5-methyl-1H-pyrrolo[2,3-b]pyridin-2-yl)-N-[(2S)-1,1,1-trifluorobutan-2-yl]pyridine-3-sulfonamide]
IC50 [1]: < 500 nM
melting point: 138 to 144 °C

N#Cc1c(-c2ccc(S(=O)(=O)NC3CCC3)cn2)n(C2CCC2)c2ncc(Cl)cc12 [Cpd 283, 6-(5-chloro-3-cyano-1-cyclobutyl-1H-pyrrolo[2,3-b]pyridin-2-yl)-N-cyclobutylpyridine-3-sulfonamide]
IC50 [1]: < 500 nM
melting point: 178 to 180 °C

C[C@H](NS(=O)(=O)c1cnc(-c2c(C#N)c3cc(Cl)cnc3n2C2CCC2)nc1)C(F)(F)F [Cpd 285, 2-(5-chloro-3-cyano-1-cyclobutyl-1H-pyrrolo[2,3-b]pyridin-2-yl)-N-[(2S)-1,1,1-trifluoropropan-2-yl]pyrimidine-5-sulfonamide]
IC50 [1]: < 500 nM
melting point: 205 to 207 °C

CC1(NS(=O)(=O)c2cnc(-c3c(C#N)c4cc(Cl)cnc4n3C3CCC3)nc2)CC1 [Cpd 286, 2-(5-chloro-3-cyano-1-cyclobutyl-1H-pyrrolo[2,3-b]pyridin-2-yl)-N-(1-methylcyclopropyl)pyrimidine-5-sulfonamide]
IC50 [1]: < 500 nM
melting point: 237 to 240 °C

C[C@H](NS(=O)(=O)c1ccc(-c2c(C#N)c3ncc(Cl)cc3n2C2CCCCC2)cc1)C(F)(F)F [Cpd 287, 4-(6-chloro-3-cyano-1-cyclohexyl-1H-pyrrolo[3,2-b]pyridin-2-yl)-N-[(2S)-1,1,1-trifluoropropan-2-yl]benzenesulfonamide]
IC50 [1]: 500 to 2000 nM
melting point: 300 to 305 °C

CC(C)(C)S(=O)(=O)Nc1ccc(-c2c(C#N)c3ncc(Cl)cc3n2C2CCCCC2)cc1 [Cpd 288, N-[4-(6-chloro-3-cyano-1-cyclohexyl-1H-pyrrolo[3,2-b]pyridin-2-yl)phenyl]-2-methylpropane-2-sulfonamide]
IC50 [1]: 500 to 2000 nM
melting point: 279 to 283 °C

Cc1cnc2c(c1)c(C#N)c(-c1cc(C)c(S(=O)(=O)N[C@@H](C)C(F)(F)F)cn1)n2C1CCC1 [Cpd 289, 6-(3-cyano-1-cyclobutyl-5-methyl-1H-pyrrolo[2,3-b]pyridin-2-yl)-4-methyl-N-[(2S)-1,1,1-trifluoropropan-2-yl]pyridine-3-sulfonamide]
IC50 [1]: < 500 nM
melting point: 218 to 223 °C

Cc1cc(S(=O)(=O)N[C@@H](C)C(F)(F)F)cnc1-c1c(C#N)c2cc(Cl)cnc2n1C1CCCC1 [Cpd 290, 6-(5-chloro-3-cyano-1-cyclopentyl-1H-pyrrolo[2,3-b]pyridin-2-yl)-5-methyl-N-[(2S)-1,1,1-trifluoropropan-2-yl]pyridine-3-sulfonamide]
IC50 [1]: < 500 nM
melting point: 240 to 245 °C

Cc1cnc2c(c1)c(C#N)c(-c1ncc(S(=O)(=O)N[C@@H](C)C(F)(F)F)cc1C)n2C1CCC1 [Cpd 291, 6-(3-cyano-1-cyclobutyl-5-methyl-1H-pyrrolo[2,3-b]pyridin-2-yl)-5-methyl-N-[(2S)-1,1,1-trifluoropropan-2-yl]pyridine-3-sulfonamide]
IC50 [1]: < 500 nM
melting point: 181 to 185 °C

COc1cnc2c(c1)c(C#N)c(-c1ncc(S(=O)(=O)N[C@@H](C)C(F)(F)F)cc1C)n2C1CCC1 [Cpd 292, 6-(3-cyano-1-cyclobutyl-5-methoxy-1H-pyrrolo[2,3-b]pyridin-2-yl)-5-methyl-N-[(2S)-1,1,1-trifluoropropan-2-yl]pyridine-3-sulfonamide]
IC50 [1]: < 500 nM
melting point: 180 to 183 °C

Cc1cnc2c(c1)c(C#N)c(-c1ccc(S(=O)(=O)NC(C)(C)C)cn1)n2C1CCC1 [Cpd 293, N-tert-butyl-6-(3-cyano-1-cyclobutyl-5-methyl-1H-pyrrolo[2,3-b]pyridin-2-yl)pyridine-3-sulfonamide]
IC50 [1]: < 500 nM
melting point: 173 to 175 °C

C[C@H](NS(=O)(=O)c1ccc(-c2c(C#N)c3cc(O)cnc3n2C2CCCC2)nc1)C(F)(F)F [Cpd 294, 6-(3-cyano-1-cyclopentyl-5-hydroxy-1H-pyrrolo[2,3-b]pyridin-2-yl)-N-[(2S)-1,1,1-trifluoropropan-2-yl]pyridine-3-sulfonamide]
IC50 [1]: < 500 nM
melting point: 221 to 223 °C

C[C@H](NS(=O)(=O)c1ccc(-c2c(C#N)c3cc(C(F)(F)F)cnc3n2CC2CC2)nc1)C(F)(F)F [Cpd 295, 6-[3-cyano-1-(cyclopropylmethyl)-5-(trifluoromethyl)-1H-pyrrolo[2,3-b]pyridin-2-yl]-N-[(2S)-1,1,1-trifluoropropan-2-yl]pyridine-3-sulfonamide]
IC50 [1]: < 500 nM
melting point: 193 to 195 °C
